According to ChEMBL document CHEMBL2311387, “Dose-dependent interaction of trans-resveratrol with biomembranes: effects on antioxidant property” (J Med Chem, 2013):
Activity calls are given as the source filed them. The rule behind the calls is not given here.

Tests used:
[1] = Induction of budding morphology in human erythrocytes up to 100 uM after 1 hr by cold field emission scanning electron microscopic analysis; format: cell-based; settings: erythrocyte
[2] = Induction of blebbing morphology in human erythrocytes up to 100 uM after 1 hr by cold field emission scanning electron microscopic analysis; format: cell-based; settings: erythrocyte
[3] = Binding affinity to curcumin encapsulated liposomes assessed as curcumin release from unilamellar vesicles at 100 uM after 20 mins NMR spectroscopic analysis
[4] = Binding affinity to curcumin encapsulated liposomes assessed as curcumin release from unilamellar vesicles after 20 mins by NMR spectroscopic analysis
[5] = Binding affinity to planer lipid bilayer assessed as change in height of semicircle pattern by admittance spectroscopic analysis; format: physicochemical
[6] = Binding affinity to planer lipid bilayer assessed as reduction in charge transfer resistance by admittance spectroscopic analysis; format: physicochemical
[7] = Binding affinity to planer lipid bilayer assessed as change in diameter of semicircle pattern by admittance spectroscopic analysis; format: physicochemical
[8] = Binding affinity to planer lipid bilayer assessed as reduction in diameter of semicircle pattern at up to 60 uM by admittance spectroscopic analysis; format: physicochemical
[9] = Binding affinity to planer lipid bilayer assessed as increase in cathodic current by cyclic voltammetric analysis; format: physicochemical
[10] = Binding affinity to planer lipid bilayer assessed as increase in anodic current by cyclic voltammetric analysis; format: physicochemical
[11] = Antioxidant activity in planer lipid bilayer membrane assessed as inhibition of DPPH-induced reduction in height of semicircle at 50 to 100 uM by admittance spectroscopic analysis; format: functional, cell membranes
[12] = Induction of morphological changes in human erythrocytes at => 60 uM after 1 hr by cold field emission scanning electron microscopic analysis; format: cell-based; settings: erythrocyte
MCF7 = test: Cytotoxicity against human MCF7 cells at 100 uM after 24 hrs by MTS assay; format: cell-based; settings: mcf7, 24 h
[13] = Antioxidant activity in planer lipid bilayer membrane assessed as reduction in 100 uM DPPH-induced charge transfer resistance at 100 uM by admittance spectroscopic analysis; format: functional, cell membranes; parameters: scale not given: the % may be the effect or the level left
[14] = Antioxidant activity in planer lipid bilayer membrane assessed as reduction in 100 uM DPPH-induced charge transfer resistance at 50 uM by admittance spectroscopic analysis; format: functional, cell membranes; parameters: scale not given: the % may be the effect or the level left
[15] = Antioxidant activity in planer lipid bilayer membrane assessed as reduction in 50 uM DPPH-induced charge transfer resistance at 100 uM by admittance spectroscopic analysis; format: functional, cell membranes; parameters: scale not given: the % may be the effect or the level left
[16] = Antioxidant activity in planer lipid bilayer membrane assessed as reduction in 50 uM DPPH-induced charge transfer resistance at 50 uM by admittance spectroscopic analysis; format: functional, cell membranes; parameters: scale not given: the % may be the effect or the level left
[17] = Antioxidant activity in planer lipid bilayer membrane assessed as inhibition of DPPH-induced reduction in diameter of semicircle at 50 to 100 uM by admittance spectroscopic analysis; format: functional, cell membranes
[18] = tested on: Radical scavenging activity; test: Antioxidant activity assessed as DPPH free radical scavenging activity at >100 uM after 45 mins by UV-visible spectrophotometric analysis relative to vitamin C; format: functional
[19] = tested on: Radical scavenging activity; test: Antioxidant activity assessed as DPPH free radical scavenging activity at <100 uM after 45 mins by UV-visible spectrophotometric analysis relative to vitamin C; format: functional
[20] = Induction of destruction morphology in human erythrocytes up to 100 uM after 1 hr by cold field emission scanning electron microscopic analysis; format: cell-based; settings: erythrocyte

SMILES: Oc1ccc(/C=C/c2cc(O)cc(O)c2)cc1 [RESVERATROL]
- Activity [1]: Toxic
- Activity [2]: Toxic
- Activity [3]: 17%
- Activity [4]: Dose-dependent effect
- Activity [5]: Dose-dependent effect
- Activity [6]: Active
- Activity [7]: Dose-dependent effect
- Activity [8]: Active
- Activity [9]: Dose-dependent effect
- Activity [10]: Dose-dependent effect
- inhibition [11]: Active
- Activity [12]: Non-toxic
- Activity (MCF7): 50%
- Activity [13]: 10.9%
- Activity [14]: 22%
- Activity [15]: 7.7%
- Activity [16]: 19.5%
- inhibition [17]: Active
- Activity [18]: Active
- Activity [19]: Active
- Activity [20]: Toxic
